Reference: patent US7576115B2, “Heterocyclic compounds and thrombopoietin receptor activators” (Nissan Chemical Industries, Ltd., priority 2003, dated 2009)

system: UT7/EPO cells; assay: Proliferation of mother cell line UT7/EPO expressing no TPO receptor (WST-8); type: cell-based, human; settings: FIG. 2
Protocol: (§1) UT7/EPO-mpl is a stable transformed cell line obtained by introducing into human leukemic cell line UT7/EPO a vector that induces expression of human TPO receptor (c-mp1) under control of a cytomegaloviral promoter by the method of Takatoku et al. (J. Biol. Chem., 272:7259-7263 (1997)). […] These two cell lines were subcultured in Iscove's modified Dulbecco's medium (IMDM; GIBCO) containing 10% fetal bovine serum (FBS; TRACE SCIENTIFIC, Thermo Electron or BioWest) using a CO2 incubator (5% CO2, 37° C.)
The subcultured cells described above were washed twice with phosphate buffered saline (PBS) and suspended in IMDM containing 10% FBS at a cell density of 6×10^4 cells/ml. The cell suspension was transferred to a 96-well tissue culture plate (CORNING) in 100 μl aliquots. Then either TPO (PeproTech EC) or the compound of Synthetic Example 3 dissolved in dimethyl sulfoxide (DMSO) was diluted 83-fold with IMDM containing 10% FBS and added to the aforementioned cell suspension in 20 μl aliquots. The suspension was incubated in a CO2 incubator (5% Co2, 37° C.) for 4 days. Cell proliferation was assayed using WST-8 reagent (Kishida Chemical Co., Ltd.) according to instructions by the manufacturer. […] The formazan pigment generated was detected by measuring the absorbance at 450 nm with a 96-well microplate reader (Nihon Molecular Devices, Spectramax 190).

SMILES | effect on proliferation of UT7/EPO, the mother cell line
CC(=NNC(=O)c1ccc(C(=O)O)cc1)c1nn(C)c(-c2ccc(C(C)(C)C)cc2)c1O [Synthetic Example 3, 4-[(2-{1-[5-(4-tert-butylphenyl)-4-hydroxy-1-methyl-1H-pyrazol-3-yl]ethylidene}hydrazino)carbonyl]benzoic acid] | no effect

biological target: T1, thrombopoietin (TPO) receptor (Homo sapiens, UniProt P40238); assay: Stimulation of proliferation of TPO-dependent cell line UT7/EPO-mpl (WST-8); type: cell-based; settings: FIG. 1; concentration-dependent; 4 days incubation, WST-8 absorbance at 450 nm
T1 construct: expressed in transfected cells; host or cells: human leukemic cell line UT7/EPO, stably transformed (UT7/EPO-mpl)
T1 sequence (P40238 26-635): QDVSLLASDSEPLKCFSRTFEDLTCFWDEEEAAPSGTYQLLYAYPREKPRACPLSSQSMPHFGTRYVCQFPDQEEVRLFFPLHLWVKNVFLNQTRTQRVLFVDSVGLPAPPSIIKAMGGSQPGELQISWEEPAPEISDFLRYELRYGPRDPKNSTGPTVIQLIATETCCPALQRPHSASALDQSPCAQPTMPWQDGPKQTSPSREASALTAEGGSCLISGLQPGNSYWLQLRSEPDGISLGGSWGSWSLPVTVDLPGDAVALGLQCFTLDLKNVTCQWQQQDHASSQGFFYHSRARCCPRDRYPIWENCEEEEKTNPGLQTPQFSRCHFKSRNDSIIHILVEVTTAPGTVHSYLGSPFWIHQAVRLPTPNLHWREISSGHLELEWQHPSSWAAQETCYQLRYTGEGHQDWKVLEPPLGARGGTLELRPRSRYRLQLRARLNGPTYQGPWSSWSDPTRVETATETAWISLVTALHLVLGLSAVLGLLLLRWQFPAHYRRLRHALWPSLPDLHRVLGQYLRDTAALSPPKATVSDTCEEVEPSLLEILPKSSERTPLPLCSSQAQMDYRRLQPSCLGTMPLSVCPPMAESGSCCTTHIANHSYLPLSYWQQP
Protocol: The reactivity of the compound of Synthetic Example 3 of the present invention with thrombopoietin (TPO) receptor was assayed using a human leukemic cell line, UT7/EPO-mpl.
as §1
The subcultured cells described above were washed twice with phosphate buffered saline (PBS) and suspended in IMDM containing 10% FBS at a cell density of 6×10^4 cells/ml. The cell suspension was transferred to a 96-well tissue culture plate (CORNING) in 100 μl aliquots. Then either TPO (PeproTech EC) or the compound of Synthetic Example 3 dissolved in dimethyl sulfoxide (DMSO) was diluted 83-fold with IMDM containing 10% FBS and added to the aforementioned cell suspension in 20 μl aliquots. The suspension was incubated in a CO2 incubator (5% Co2, 37° C.) for 4 days. Cell proliferation was assayed using WST-8 reagent (Kishida Chemical Co., Ltd.) according to instructions by the manufacturer. A 10 μl aliquot of 5 mM WST-8 reagent solution was added to each well of the tissue culture plate, and the plate was incubated at 37° C. for 4 h. The formazan pigment generated was detected by measuring the absorbance at 450 nm with a 96-well microplate reader (Nihon Molecular Devices, Spectramax 190).
The compounds of the following Synthetic Examples were tested according to the method of Assay Example 1 to determine the concentration of each compound that yields a growth rate corresponding to 50% of the growth of human leukemic cell line UT-7/EPO-mpl observed in the presence of 10 ng/ml TPO (EC50).

proliferation of TPO-responsive UT7/EPO-mpl cells | SMILES
stimulated | CC(=NNC(=O)c1ccc(C(=O)O)cc1)c1nn(C)c(-c2ccc(C(C)(C)C)cc2)c1O [Synthetic Example 3, 4-[(2-{1-[5-(4-tert-butylphenyl)-4-hydroxy-1-methyl-1H-pyrazol-3-yl]ethylidene}hydrazino)carbonyl]benzoic acid]

same assay, conditions: concentration that yields a growth rate corresponding to 50% of the growth of UT-7/EPO-mpl observed in the presence of 10 ng/ml TPO

SMILES | EC50
C/C(=N\NC(=S)Nc1cccc(C(=O)O)c1)c1csc(-c2ccc(C)c(C)c2)c1O [compound 136] | 7.05 nM
C/C(=N\NC(=S)Nc1ccc2cn[nH]c2c1)c1nn(C)c(-c2ccc(Cl)c(Cl)c2)c1O [compound 155] | 11.2 nM
C/C(=N\NC(=S)Nc1ccccc1CC(N)=O)c1nn(C)c(-c2ccc(C(F)(F)F)cc2)c1O [compound 161] | 7.95 nM
C/C(=N\NC(=O)c1ccc2cc(C(=O)O)ccc2c1)c1csc(-c2ccc(Cl)c(Cl)c2)c1O [compound 169] | 7.41 nM
C/C(=N\NC(=O)c1ccc(N)c(N)c1)c1csc(-c2ccc(Cl)c(Cl)c2)c1O [compound 176] | 36.8 nM
C/C(=N\NC(=O)c1ccc(C(N)=O)s1)c1csc(-c2ccc(Cl)c(Cl)c2)c1O [compound 179] | 6.6 nM

Results, then the compound that gave them:

EC50 | SMILES
6.51 nM | C/C(=N\NC(=O)c1ccc(C(=O)NC2CCCC2)s1)c1csc(-c2ccc(Cl)c(Cl)c2)c1O [compound 178]
6.32 nM | CC(=O)Nc1cccc(NC(=S)N/N=C(\C)c2nn(C)c(-c3ccc(C(F)(F)F)cc3)c2O)c1 [compound 157]
5.73 nM | C/C(=N\NC(=S)Nc1cc(C(=O)O)cc([N+](=O)[O-])c1)c1nn(C)c(-c2ccc(Cl)c(Cl)c2)c1O [compound 164]
5.69 nM | C/C(=N\NC(=S)Nc1ccc2[nH]c(=O)[nH]c2c1)c1csc(-c2ccc(Cl)c(Cl)c2)c1O [compound 154]
5.65 nM | C/C(=N\NC(=O)c1sc(N)nc1C(F)(F)F)c1csc(-c2ccc(Cl)c(Cl)c2)c1O [compound 181]
4.08 nM | C/C(=N\NC(=O)c1ccc(C(=O)NCCCN(C)C)s1)c1csc(-c2ccc(Cl)c(Cl)c2)c1O [compound 226]
1.56 nM | C/C(=N\NC(=O)c1ccc(C(=O)O)cc1N)c1nn(C)c(-c2ccc(C(F)(F)F)cc2)c1O [compound 228]
0.529 nM | C/C(=N\NC(=O)c1ccc(C(=O)O)c([N+](=O)[O-])c1)c1csc(-c2ccc(C)c(C)c2)c1O [compound 212]

system: Human bone marrow CD34+ cells; assay: Megakaryocyte colony stimulating activity (megakaryocyte colony forming method); type: cell-based; settings: Concentration 0.3 μg/ml; 11 days; colonies of at least 8 stained megakaryocyte cells
Protocol: The action of the compound of Synthetic Example 2 of the present invention on the proliferation, differentiation and maturation of megakaryocyte cells was measured by the megakaryocyte colony forming method using human bone marrow cells. Human bone marrow CD34^+ cells (Cambrex Bio Science Walkersville) were incubated on 2-well chamber slide for 11 days in a CO2 incubator (5% CO2, 37° C.) using MegaCult™-C (StemCell Technologies) containing 0.1% (v/v) of the compound of Synthetic Example 2 dissolved in DMSO. After dehydration and fixation, the cells were stained with an anti-glycoprotein IIb/IIIa antibody in accordance with the instruction by the manufacturer. The colonies consisting of at least 8 stained megakaryocyte cells in each well was counted under a microscope. The megakaryocyte colony counts of duplicate or more assays were averaged.

SMILES | Megakaryocyte colony Count
CC(=NNC(=S)Nc1ccc(C(=O)O)cc1)c1nn(C)c(-c2ccc(Cl)c(Cl)c2)c1O [Synthetic Example 2, 4-{[(2-{1-[5-(3,4-dichlorophenyl)-4-hydroxy-1-methyl-1H-pyrazol-3-yl]ethylidene}hydrazino)carbonothioyl]amino}benzoic acid] | 25

same assay, conditions: Concentration 1 μg/ml; 11 days; colonies of at least 8 stained megakaryocyte cells

SMILES | Megakaryocyte colony Count
CC(=NNC(=S)Nc1ccc(C(=O)O)cc1)c1nn(C)c(-c2ccc(Cl)c(Cl)c2)c1O [Synthetic Example 2, 4-{[(2-{1-[5-(3,4-dichlorophenyl)-4-hydroxy-1-methyl-1H-pyrazol-3-yl]ethylidene}hydrazino)carbonothioyl]amino}benzoic acid] | 48
